Measured values from ChEMBL document CHEMBL1201862, “PubChem BioAssay data set” (2004).
Active and inactive are the calls of the source.

Key:
INS1 = assay: beta cell apoptosis inhibitors, cytokine rescue, dose response, luminescence, retest (AID 449756); format: functional, cell-based; conditions: Rattus norvegicus;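 also: cell death triggered by IL-1 beta plus TNF-alpha plus IFN-gamma mixture; protective hits raise ATP signal compared with cytokine alone wells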
Exodeoxyribonuclease V = target: T1, Exodeoxyribonuclease V (Escherichia coli (strain K12), UniProt P04993+P07648+P08394); assay: E. coli RecBCD inhibitors, dose response, counter-screen for AddAB inhibitor project, absorbance, V66 E. coli, mutant T4 phage (AID 492957); format: functional, cell-based, Escherichia coli str. K-12 substr. MG1655
T1 sequence (P04993 whole entry): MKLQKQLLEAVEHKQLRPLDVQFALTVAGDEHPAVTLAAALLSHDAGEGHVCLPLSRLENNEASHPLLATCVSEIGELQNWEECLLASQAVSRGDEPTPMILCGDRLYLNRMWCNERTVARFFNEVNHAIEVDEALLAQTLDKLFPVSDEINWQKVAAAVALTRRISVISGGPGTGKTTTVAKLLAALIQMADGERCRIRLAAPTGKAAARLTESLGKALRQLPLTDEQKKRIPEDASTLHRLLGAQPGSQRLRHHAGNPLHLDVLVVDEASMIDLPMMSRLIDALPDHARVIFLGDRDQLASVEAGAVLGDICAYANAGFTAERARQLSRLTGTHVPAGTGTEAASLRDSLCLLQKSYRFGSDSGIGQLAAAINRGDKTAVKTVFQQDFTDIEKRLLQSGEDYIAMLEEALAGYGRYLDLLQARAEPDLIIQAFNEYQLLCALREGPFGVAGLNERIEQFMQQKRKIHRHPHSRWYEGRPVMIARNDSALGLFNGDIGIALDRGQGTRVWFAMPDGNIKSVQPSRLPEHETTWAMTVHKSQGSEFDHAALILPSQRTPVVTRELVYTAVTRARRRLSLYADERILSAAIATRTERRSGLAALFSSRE
T1 sequence (P07648 whole entry): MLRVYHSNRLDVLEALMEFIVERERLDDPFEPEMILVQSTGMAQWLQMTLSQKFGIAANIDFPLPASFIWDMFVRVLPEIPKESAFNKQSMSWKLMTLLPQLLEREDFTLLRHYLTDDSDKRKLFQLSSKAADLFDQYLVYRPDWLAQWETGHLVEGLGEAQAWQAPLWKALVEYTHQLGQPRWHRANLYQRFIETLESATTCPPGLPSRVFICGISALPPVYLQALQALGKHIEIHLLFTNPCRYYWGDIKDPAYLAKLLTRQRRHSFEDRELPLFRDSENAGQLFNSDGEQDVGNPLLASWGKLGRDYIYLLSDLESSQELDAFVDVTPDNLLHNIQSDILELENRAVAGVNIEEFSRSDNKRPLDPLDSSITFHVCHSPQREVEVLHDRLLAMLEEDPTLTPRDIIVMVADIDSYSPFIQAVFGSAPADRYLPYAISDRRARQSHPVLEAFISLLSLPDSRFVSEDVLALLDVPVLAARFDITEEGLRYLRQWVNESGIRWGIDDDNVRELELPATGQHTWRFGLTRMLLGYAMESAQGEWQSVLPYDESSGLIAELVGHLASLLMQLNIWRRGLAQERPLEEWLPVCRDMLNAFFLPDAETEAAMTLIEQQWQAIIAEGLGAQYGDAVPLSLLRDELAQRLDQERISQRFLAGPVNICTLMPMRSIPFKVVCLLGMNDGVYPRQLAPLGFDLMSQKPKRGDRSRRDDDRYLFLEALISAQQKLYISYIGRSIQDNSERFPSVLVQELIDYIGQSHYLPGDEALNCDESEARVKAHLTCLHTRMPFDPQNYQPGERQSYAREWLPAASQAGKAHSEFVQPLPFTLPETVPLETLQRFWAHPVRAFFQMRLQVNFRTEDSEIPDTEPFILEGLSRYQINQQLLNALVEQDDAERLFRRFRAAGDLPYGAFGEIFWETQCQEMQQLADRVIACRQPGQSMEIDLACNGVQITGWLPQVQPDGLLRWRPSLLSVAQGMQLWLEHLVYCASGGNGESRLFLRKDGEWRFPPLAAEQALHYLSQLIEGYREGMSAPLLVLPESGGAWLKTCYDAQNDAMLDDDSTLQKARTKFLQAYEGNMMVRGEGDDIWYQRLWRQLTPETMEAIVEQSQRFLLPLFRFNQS
T1 sequence (P08394 whole entry): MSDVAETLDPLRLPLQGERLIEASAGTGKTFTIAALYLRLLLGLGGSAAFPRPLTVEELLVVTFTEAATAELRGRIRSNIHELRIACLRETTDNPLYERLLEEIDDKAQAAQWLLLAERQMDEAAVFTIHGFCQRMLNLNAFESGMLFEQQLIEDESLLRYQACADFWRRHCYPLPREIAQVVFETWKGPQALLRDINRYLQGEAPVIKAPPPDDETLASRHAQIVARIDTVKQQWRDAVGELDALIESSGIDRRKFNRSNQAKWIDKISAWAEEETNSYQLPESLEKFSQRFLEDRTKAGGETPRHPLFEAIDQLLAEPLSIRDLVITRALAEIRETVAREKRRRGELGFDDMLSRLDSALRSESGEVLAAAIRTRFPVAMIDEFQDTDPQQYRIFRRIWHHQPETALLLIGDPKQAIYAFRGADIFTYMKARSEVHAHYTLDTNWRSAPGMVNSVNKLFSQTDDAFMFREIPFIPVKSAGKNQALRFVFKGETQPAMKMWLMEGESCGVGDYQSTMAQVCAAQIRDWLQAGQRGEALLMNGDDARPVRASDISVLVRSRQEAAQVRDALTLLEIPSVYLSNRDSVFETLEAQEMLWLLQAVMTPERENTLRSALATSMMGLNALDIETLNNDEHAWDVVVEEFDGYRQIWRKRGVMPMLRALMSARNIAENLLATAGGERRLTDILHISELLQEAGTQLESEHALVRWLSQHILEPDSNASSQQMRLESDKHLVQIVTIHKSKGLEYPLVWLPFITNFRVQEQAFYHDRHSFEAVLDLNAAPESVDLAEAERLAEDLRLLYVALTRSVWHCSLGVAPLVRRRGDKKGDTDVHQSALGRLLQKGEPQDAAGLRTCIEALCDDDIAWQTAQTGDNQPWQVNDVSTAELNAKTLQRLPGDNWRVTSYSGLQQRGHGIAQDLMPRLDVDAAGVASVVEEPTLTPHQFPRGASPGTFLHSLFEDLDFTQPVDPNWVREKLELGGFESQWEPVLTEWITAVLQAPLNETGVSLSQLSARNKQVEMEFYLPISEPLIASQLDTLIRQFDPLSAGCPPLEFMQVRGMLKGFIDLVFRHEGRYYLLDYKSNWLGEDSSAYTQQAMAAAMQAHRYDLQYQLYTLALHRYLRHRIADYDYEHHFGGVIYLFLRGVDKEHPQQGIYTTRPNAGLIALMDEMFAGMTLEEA

Compound	AC50 (INS1)	IC50 (Exodeoxyribonuclease V)
Cn1nc(-c2ccc(Cl)cc2)nc2c(=O)n(C)c(=O)nc1-2	0.441 µM (active)	
COc1ccc(C(NC(=O)C(C)C)c2ccc3cccnc3c2O)cc1 (centres undefined)	0.65 µM (active)	> 119 µM (inactive)
O=C(Cc1ccc([N+](=O)[O-])cc1)N/N=C/c1ccc([N+](=O)[O-])o1		> 39.5 µM (inactive)
